Data set [1] deals with PC3-DR cells. Put plainly: cells. The settings on record: Homo sapiens, 48 h.
Method: (§2) Viability was evaluated using MTT assay, and IC50s were calculated using GraphPad Prism software. Number of biological replicates n = 3. […] Cells (6 × 10^3 cells/well in 100 μL/well of media) were plated in 96-well plates. The plates were incubated overnight, and the medium was replaced with fresh medium containing drugs at the indicated concentrations. The plates were further incubated for 48 h, unless otherwise stated, the solution of MTT reagent in PBS was added to each well, and cells were incubated for another 2–4 h to form formazan crystals. Then the media was removed and the plates were dried overnight. 50 μL of DMSO was added to each well to dissolve the formazan crystals. The absorbance of each well was measured using an Infinite F200PRO reader (TECAN, Männedorf, Switzerland). The cell viability was estimated as an inhibition concentration (IC50), which was calculated using GraphPad Prism software v.9.1.1 (GraphPad Software, San Diego, CA, USA). IC₅₀ values were determined by fitting the data to a nonlinear regression model (log[inhibitor] versus normalized response—variable slope).
Data set [2] relates to PC3-DR cells. Conditions: TQD 50 nM.
Method: as §2
In data set [3] the test system is PC3-DR cells. Briefly: MTT cytotoxicity assay. Conditions: Homo sapiens, 48 h, mean ± SD. It counts as cell-based, human. An excerpt:
(§1) The cell lines were purchased from ATCC (Manassas, VA, USA) or ECACC (Salisbury, UK). The following cell lines were used: Human prostate cancer cells LNCaP (ATCC; RRID:CVCL_0395), VCaP (ECACC; RRID:CVCL_2235), 22Rv1 (ATCC; RRID:CVCL_1045), PC3 (ATCC; RRID:CVCL_0035), and DU145 (ATCC; RRID:CVCL_0105); human prostate non-cancer cells PNT2 (ATCC; RRID:CVCL_2164) and RWPE-01 (ATCC; RRID:CVCL_3791). Human non-cancer embryonic kidney cells HEK293T (ECACC; RRID:CVCL_0063) and human fibroblast cells MRC-9 (ECACC; RRID:CVCL_2629). The docetaxel-resistant cells PC3-DR were generated by long-term treatment of human prostate cancer PC3 cells with sublethal concentrations of docetaxel as previously described[32] and were provided by Prof. Z. Culig (Innsbruck Medical University, Austria). All cell lines were recently authenticated by a commercial service (Multiplexion GmbH, Heidelberg, Germany) and were cultured as previously described[58],[59]. Cells were kept in culture for a maximum of three months and were routinely examined for bacterial, fungal, and mycoplasma infections.
(In general: Formazan colour is commonly taken as a measure of viable cells.)

The test system of the next data set is VCaP cells. Briefly: MTT cytotoxicity assay. It is filed as cell-based, human. The settings on record: Homo sapiens, 48 h, mean ± SD.
Text: as §1

A further data set relates to PC3 cells. Briefly: MTT cytotoxicity assay. It counts as cell-based, human. Conditions: Homo sapiens, PC-3; PC3, 48 h, mean ± SD.
Text: as §1

The next data set concerns PNT2 cells. Put plainly: MTT cytotoxicity assay. It counts as cell-based, human. The settings on record: Homo sapiens; PNT2, 48 h, mean ± SD.
Text: as §1

A further data set has as its system HEK293T cells. Put plainly: MTT cytotoxicity assay. It is filed as cell-based, human. Conditions: Homo sapiens, HEK-293T, 48 h, mean ± SD.
Text: as §1

The test system of the next data set is RWPE-1 cells. Put plainly: MTT cytotoxicity assay. Conditions: Homo sapiens; RWPE-1, 48 h, mean ± SD. It is filed as cell-based, human.
Text: as §1

For a further data set, the system named is 22Rv1 cells. Briefly: MTT cytotoxicity assay. It is filed as cell-based, human. Conditions: Homo sapiens; 22Rv1, 48 h, mean ± SD.
Text: as §1

The test system of the next data set is DU145 cells. Briefly: MTT cytotoxicity assay. It counts as cell-based, human. Conditions: Homo sapiens, DU-145; DU145, 48 h, mean ± SD.
Text: as §1

For a further data set, the system named is LNCaP cells. Put plainly: MTT cytotoxicity assay. The settings on record: Homo sapiens, 48 h, mean ± SD. It counts as cell-based, human.
Text: as §1

In a further data set the test system is MRC-9 cells. Put plainly: MTT cytotoxicity assay. It is filed as cell-based, human. The settings on record: Homo sapiens, MRC9; MRC-9, 48 h, mean ± SD.
Text: as §1

As for `CO[C@@H]1[C@@H](O)[C@H](O[C@@H]2[C@@H](O)[C@H](O[C@H]3[C@H](O)[C@@H](O[C@@H]4OC[C@@H](O)[C@H](O)[C@H]4O)[C@H](O[C@H]4[C@H](O[C@H]5CC[C@]6(C)[C@@H]7CCC89C(=O)O[C@@](C)(/C=C\C=C(C)C)[C@H]8[C@@H](OC(C)=O)C[C@@]9(C)C7=CC[C@H]6C5(C)C)OC[C@@H](O)[C@@H]4O)O[C@@H]3C)O[C@H](CO)[C@H]2O)OC[C@H]1O` (stereo partly drawn) [CuC1, cucumarioside C1], the IC50 (as a rule, the concentration at which inhibition is half-maximal) in the data set on PC3-DR cells [1] worked out at 5690 ± 330 nM; in the data set with PC3-DR cells [3], 5690 ± 780 nM; in the data set with VCaP cells, 472 ± 65 nM; in the data set on PC3 cells, 1590 ± 120 nM; in the data set on PNT2 cells, 754 ± 58 nM; in the data set with HEK293T cells, 660 ± 50 nM. In addition, the IC50 was found to be 554 ± 105 nM in the data set on RWPE-1 cells; 246 ± 17 nM with 22Rv1 cells; 3240 ± 340 nM with DU145 cells; 3000 ± 540 nM with LNCaP cells; 959 ± 248 nM in the data set with MRC-9 cells. Besides, the “effect of co-treatment with tariquidar on cytotoxicity” value in the data set on PC3-DR cells [2] is “did not alter cytotoxicity”.

These data come from paper PMC12322260, “Anticancer activity of triterpene glycosides from the sea star Solaster pacificus” (Scientific Reports, 2025).
